Data as given in publication PMC8225008, “Development of Non-Ethoxypropanoic Acid Type Cryptochrome Inhibitors with Circadian Molecular Clock-Enhancing Activity by Bioisosteric Replacement” (Pharmaceuticals, 2021).

Legend:
E-box-LUC reporter = experiment: E-box-LUC luciferase reporter assay, dose-response in stably transfected NIH3T3 cells; type: cell-based; settings: Mus musculus, E-box-LUC reporter activity, NIH3T3, 36 h; for Emax: maximum response as a percentage of the vehicle-treated group, read-out: Max (%)
Protocol: Materials for cell culture were purchased from Thermo Fisher Scientific, unless otherwise stated. NIH3T3 and HEK293T cells were maintained in Dulbecco’s modified Eagle medium supplemented with 5% fetal bovine serum and 100 U/mL penicillin/streptomycin in a humidified atmosphere containing 5% CO2 at 37 °C. Plasmids and transfection experiments for luciferase reporter assay were described in our previous report. For dose-response experiments, mouse NIH3T3 cells stably transfected with an E-box-LUC reporter were plated in 12-well culture plates, treated as indicated for 36 h, and subjected to luciferase assay. For transient transfections, we seeded HEK293T cells in 12-well culture plates and used Lipofectamine® 3000 reagent to transfect cells with the E-box-LUC reporter and the indicated clock gene expression plasmids together with a thymidine kinase promoter-driven Renilla luciferase (pRL-TK) plasmids. We kept total DNA levels constant by adding an empty pcDNA3.1 plasmid. After 24 h of transfection, cells were treated with vehicle (0.1% DMSO) or chemical compounds at various concentrations for 36 h. Cell extracts were prepared by incubating cells in 0.3 mL reporter lysis buffer for 15 min at room temperature. Luciferase activity was measured with a commercial dual luciferase assay kit (Promega, Madison, WI, USA).
(§1) The EC50 values for luciferase reporter assay were calculated based on a logistic four-parametric equation using the mean values of intrinsic activation (SigmaPlot 10.0; Systat Software Inc., San Jose, CA, USA). The IC50 and t1/2 values for the cytochrome P450 inhibition assay and metabolic stability test were calculated by WinNonlin software (Pharsight, Mountain View, CA, USA). Pharmacokinetic parameters were calculated using non-compartmental analysis (WinNonlin v.8.3; Pharsight, Mountain View, CA, USA). Kinetic and equilibrium constants for SPR analysis were obtained by global fitting of the Langmuir 1:1 bimolecular kinetic model (ProteOn Manager v.3.1.0.6, Bio-Rad, Hercules, CA, USA). Circadian molecular clock-enhancing activities were expressed as means ± SE and statistically evaluated by Student’s t-test or one-way analysis of variance (ANOVA) followed by Newman–Keuls multiple comparison test for post hoc comparisons. The significance level for the analyses was set at p < 0.05.

CYP1A2 = target: T1, CYP1A2 (Homo sapiens, UniProt P05177); experiment: Cytochrome P450 inhibition assay (cocktail method, human liver microsomes), phenacetin O-deethylation; type: in vitro ADME
T1 construct: pooled human liver microsomes (HLMs, XTreme 200, XenoTech, Lenexa, KS, USA); tissue XenoTech XTreme 200; host or cells: pooled human liver microsomes
T1 sequence (P05177 1-516): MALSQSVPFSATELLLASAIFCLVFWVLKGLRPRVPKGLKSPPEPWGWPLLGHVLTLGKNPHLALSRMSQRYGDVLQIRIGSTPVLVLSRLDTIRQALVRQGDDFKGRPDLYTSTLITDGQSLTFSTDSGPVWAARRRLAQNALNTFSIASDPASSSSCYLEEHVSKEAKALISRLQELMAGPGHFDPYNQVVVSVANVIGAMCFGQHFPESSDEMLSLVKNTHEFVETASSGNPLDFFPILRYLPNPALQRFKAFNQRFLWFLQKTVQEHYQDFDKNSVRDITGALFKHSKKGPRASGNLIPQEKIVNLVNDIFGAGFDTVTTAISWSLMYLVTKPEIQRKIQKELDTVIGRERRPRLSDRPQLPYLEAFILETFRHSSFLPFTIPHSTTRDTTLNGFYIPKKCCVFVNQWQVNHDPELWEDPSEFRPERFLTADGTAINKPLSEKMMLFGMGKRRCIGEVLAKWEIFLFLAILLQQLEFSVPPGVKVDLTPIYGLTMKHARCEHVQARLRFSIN
Protocol: (§2) The inhibitory effects of KS15 and compound 5d on the metabolism of five cytochrome P450 (P450) probe substrates were evaluated using previous methods with slight modifications. The following P450 probe substrates were used: phenacetin (100 μM) for CYP1A2, tolbutamide (100 μM) for CYP2C9, omeprazole (20 μM) for CYP2C19, dextromethorphan (5 μM) for CYP2D6, and midazolam (5 μM) for CYP3A. Incubation mixtures containing pooled human liver microsomes (HLMs, XTreme 200, XenoTech, Lenexa, KS, USA), P450 probe substrates, and KS15 or compound 5d (final concentrations: 0, 0.5, 2, 5, 20, and 50 μM) were preincubated for 5 min at 37 °C. […] After centrifugation at 18,000× g (5 min, 4 °C), supernatant aliquots were analyzed by liquid chromatography-tandem mass spectrometry (LC-MS/MS). […]
(§3) All metabolites and IS were separated on a Kinetex C18 column (100 mm × 2.1 mm, 2.6 μm ID., Phenomenex, Torrance, CA, USA) and analyzed using an LC-MS/MS system (LCMS 8060, Shimadzu, Tokyo, Japan) equipped with an electrospray ionization (ESI) interface. […]
(§4) The EC50 values for luciferase reporter assay were calculated based on a logistic four-parametric equation using the mean values of intrinsic activation (SigmaPlot 10.0; Systat Software Inc., San Jose, CA, USA). […] Pharmacokinetic parameters were calculated using non-compartmental analysis (WinNonlin v.8.3; Pharsight, Mountain View, CA, USA). […]

CYP2C9 = target: T2, CYP2C9 (Homo sapiens, UniProt P11712); experiment: Cytochrome P450 inhibition assay (cocktail method, human liver microsomes), tolbutamide 4-methylhydroxylation; type: in vitro ADME
T2 construct: pooled human liver microsomes (HLMs, XTreme 200, XenoTech, Lenexa, KS, USA); tissue XenoTech XTreme 200; host or cells: pooled human liver microsomes
T2 sequence (P11712 whole entry): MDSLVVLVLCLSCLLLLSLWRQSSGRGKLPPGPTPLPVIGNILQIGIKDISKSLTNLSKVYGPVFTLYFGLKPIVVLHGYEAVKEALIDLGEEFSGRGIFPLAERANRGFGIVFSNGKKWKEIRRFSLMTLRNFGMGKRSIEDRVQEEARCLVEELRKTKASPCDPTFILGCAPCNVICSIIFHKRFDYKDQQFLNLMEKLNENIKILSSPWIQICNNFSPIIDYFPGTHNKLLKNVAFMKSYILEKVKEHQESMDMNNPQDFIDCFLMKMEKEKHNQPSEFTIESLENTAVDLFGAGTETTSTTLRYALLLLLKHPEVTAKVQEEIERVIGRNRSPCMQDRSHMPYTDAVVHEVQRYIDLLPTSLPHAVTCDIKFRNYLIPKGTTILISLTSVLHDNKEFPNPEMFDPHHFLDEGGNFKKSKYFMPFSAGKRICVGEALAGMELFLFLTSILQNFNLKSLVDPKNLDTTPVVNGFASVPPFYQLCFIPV
Protocol: as §2, §3, §4

CYP2C19 = target: T3, CYP2C19 (Homo sapiens, UniProt P33261); experiment: Cytochrome P450 inhibition assay (cocktail method, human liver microsomes), omeprazole hydroxylation; type: in vitro ADME
T3 construct: pooled human liver microsomes (HLMs, XTreme 200, XenoTech, Lenexa, KS, USA); tissue XenoTech XTreme 200; host or cells: pooled human liver microsomes
T3 sequence (P33261 whole entry): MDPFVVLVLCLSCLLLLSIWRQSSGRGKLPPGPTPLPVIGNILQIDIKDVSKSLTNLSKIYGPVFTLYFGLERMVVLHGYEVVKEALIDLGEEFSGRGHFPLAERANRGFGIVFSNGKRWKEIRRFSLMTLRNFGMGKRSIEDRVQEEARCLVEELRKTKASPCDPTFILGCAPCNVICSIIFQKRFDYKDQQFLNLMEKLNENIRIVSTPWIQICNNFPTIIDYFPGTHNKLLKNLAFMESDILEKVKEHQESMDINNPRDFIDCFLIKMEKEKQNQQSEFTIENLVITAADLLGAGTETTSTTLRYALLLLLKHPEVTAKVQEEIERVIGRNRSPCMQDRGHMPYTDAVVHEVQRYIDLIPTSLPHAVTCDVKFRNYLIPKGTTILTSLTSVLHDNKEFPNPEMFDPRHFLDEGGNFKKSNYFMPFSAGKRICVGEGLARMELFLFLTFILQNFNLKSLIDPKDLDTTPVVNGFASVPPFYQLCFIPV
Protocol: as §2, §3, §4

CYP2D6 = target: T4, CYP2D6 (Homo sapiens, UniProt P10635); experiment: Cytochrome P450 inhibition assay (cocktail method, human liver microsomes), dextromethorphan O-demethylation; type: in vitro ADME
T4 construct: pooled human liver microsomes (HLMs, XTreme 200, XenoTech, Lenexa, KS, USA); tissue XenoTech XTreme 200; host or cells: pooled human liver microsomes
T4 sequence (P10635 whole entry): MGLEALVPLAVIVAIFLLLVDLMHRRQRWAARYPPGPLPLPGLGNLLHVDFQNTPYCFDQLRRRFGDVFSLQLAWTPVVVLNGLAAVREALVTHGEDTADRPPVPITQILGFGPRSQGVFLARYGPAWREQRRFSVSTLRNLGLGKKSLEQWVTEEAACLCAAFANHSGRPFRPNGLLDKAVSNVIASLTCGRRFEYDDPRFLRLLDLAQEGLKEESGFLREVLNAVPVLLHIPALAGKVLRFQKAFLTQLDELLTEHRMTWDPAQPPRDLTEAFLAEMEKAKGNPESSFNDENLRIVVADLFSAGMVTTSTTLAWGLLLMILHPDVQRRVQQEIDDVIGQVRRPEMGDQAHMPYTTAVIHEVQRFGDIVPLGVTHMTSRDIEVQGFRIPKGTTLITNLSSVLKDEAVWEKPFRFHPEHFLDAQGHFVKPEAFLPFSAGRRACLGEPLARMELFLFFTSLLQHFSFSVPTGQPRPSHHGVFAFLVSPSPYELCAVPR
Protocol: as §2, §3, §4

CYP3A = experiment: Cytochrome P450 inhibition assay (cocktail method, human liver microsomes), midazolam 1'-hydroxylation; type: in vitro ADME; settings: pooled human liver microsomes, probe midazolam (5 μM)
Protocol: as §2, §3, §4

[1] = Metabolic stability test in pooled human liver microsomes; type: in vitro ADME; settings: pooled HLMs 1.0 mg/mL, 1 μM compound, NADPH generating system, read-out: t1/2 in HLMs
Protocol: The metabolic stability of KS15, 5d, or 2d was evaluated using pooled HLMs. Pooled HLMs (1.0 mg/mL), a potassium phosphate buffer, and a test compound (1 μM) were pre-incubated (37 °C, 5 min). To initiate the reaction, the NADPH generating system was added to the samples and incubated for specific time points (0, 5, 15, 20, 45, and 60 min). Then, aliquots were taken and reactions terminated in acetonitrile containing IS. After centrifugation, supernatants were analyzed using LC-MS/MS to determine KS15, 5d, or 2d concentrations in samples. Analyte separation was performed using a Kinetex C18 column (100 mm × 2.1 mm, 2.6 μm ID., Phenomenex). The mobile phase solvent A was 0.1% formic acid in water, and solvent B was 0.1% formic acid in acetonitrile. Gradient separation was performed as follows: 0–3 min (10–90% B) and 3.1–8 min (10% B). The flow rate was 0.2 mL/min, and the run time was 8 min for each sample. Electrospray ionization was conducted in positive ion mode at 4 kV. […] Quantitation was performed in the SRM of the [M+H]^+ ion and the related product ion for each test compound and IS: KS-15 (m/z 420 > 169, CE 30 eV), 5d (m/z 359 > 206, CE 20 eV), 2d (m/z 345 > 192, CE 22 eV), and IS (m/z 295 > 100, CE 17 eV).
as §1, with “Kinetic and equilibrium constants for SPR analysis were obtained by global fitting of the Langmuir 1:1 bimolecular kinetic model (ProteOn Manager v.3.1.0.6, Bio-Rad, Hercules, CA, USA).” left out, “The significance level for the analyses was set at p < 0.05.” left out

[2] = tested on: Per2-luciferase knock-in (Per2-Luc-KI) fibroblast cultures; experiment: Real-time bioluminescence monitoring of DEX-synchronized Per2-Luc-KI fibroblast cultures; type: cell-based, mouse; settings: 20 μM, DEX-synchronized Per2-Luc-KI fibroblasts
Protocol: For real-time bioluminescence monitoring, we used mouse embryonic fibroblast (MEF) cultures established from Per2-LUC-KI mice. […] The medium was then replaced with a recording medium containing 0.1 mM D-luciferin (Promega) along with vehicle (0.1% DMSO), KS15 (20 μM), 5d (20 μM), or 2d (20 μM). Light emission for 2 min at intervals of 20 min was integrated using a dish-type wheeled luminometer (Kronos-Dio, ATTO Cooperation, Tokyo, Japan). Background-subtracted bioluminescence profiles were analyzed using Cosinor analysis software (available at http://www.circadian.org, last accessed on 19 May 2021).
as §1

EC50 (E-box-LUC reporter) [µM] | Structure (SMILES) | Emax (E-box-LUC reporter) [%] | other results
1.54 | C/C(=N\OCc1ccc(Br)cc1)c1cccc(OCC(=O)O)c1 [Compound 2a] | 165 | –
– | CC(=NOCc1cccc(C(F)(F)F)c1)c1cccc(OCC(=O)O)c1 [Compound 2b, 2-(3-(1-(((3-trifluoromethylbenzyl)oxy)imino)ethyl)phenoxy)acetic acid] | 131 | –
9.88 | COc1ccc(CON=C(C)c2cccc(OCC(=O)O)c2)cc1 [Compound 2c, 2-(3-(1-(((4-methoxybenzyl)oxy)imino)ethyl)phenoxy)acetic acid] | 182 | –
– | CC(=NOCc1ccc(S(C)(=O)=O)cc1)c1cccc(OCC(=O)O)c1 [Compound 2e, 2-(3-(1-(((4-methylsulfonylbenzyl)oxy)imino)ethyl)phenoxy)acetic acid] | 98.7 | –
– | COC(=O)COc1cccc(/C(C)=N/OCc2ccc(Br)cc2)c1 [Compound 5a] | 149 | –
– | COC(=O)COc1cccc(C(C)=NOCc2cccc(C(F)(F)F)c2)c1 [Compound 5b, Methyl 2-(3-(1-(((3-trifluoromethylbenzyl)oxy)imino)ethyl)phenoxy)acetate] | 172 | –
6.32 | COC(=O)COc1cccc(C(C)=NOCc2ccc(OC)cc2)c1 [Compound 5c, Methyl 2-(3-(1-(((4-methoxybenzyl)oxy)imino)ethyl)phenoxy)acetate] | 152 | –
– | COC(=O)COc1cccc(C(C)=NOCc2ccc(S(C)(=O)=O)cc2)c1 [Compound 5e, Methyl 2-(3-(1-(((4-methylsulfonylbenzyl)oxy)imino)ethyl)phenoxy)acetate] | 105 | –
– | CCO[C@H](Cc1cccc(/C(C)=N/OCc2ccc(Br)cc2)c1)C(=O)O [KS15, reference compound] | – | IC50 (CYP1A2): 14.9 µM; IC50 (CYP2C9): 9.1 µM; IC50 (CYP2C19): 20.2 µM; IC50 (CYP2D6): 23.1 µM; IC50 at 10 min (CYP3A): 24 µM; half-life at 1 μM [1]: > 60 min; Amplitude of cyclic Per2 expression [2]: attenuates amplitude; Period of the rhythm [2]: did not significantly alter the period
